Laboratory results from patent publication US4228239A (priority 1977, dated 1980).
≈ marks a conversion by molar mass, not a printed value.

Assays:
Bacillus cereus = test: Antimicrobial activity, paper disc method; assay type: cell-based; settings: paper disc 8 mm, 0.02 ml of a 300 μg/ml solution, trypticase-soy agar
Method: (§1) With trypticase-soy agar (BBL) as an assay medium, the inhibitory concentrations against the microorganisms described below were investigated by the paper disc method. Filter-paper discs (Toyo Seisakusho, thin-type, 8 mm in dia.) each impregnated with 0.02 ml of a 300 μg/ml solution of P-3 were placed on agar plates respectively inoculated with the microorganisms described below. P-3 had no activity against the following bacteria: Escherichia coli, Proteus vulgaris, Proteus mirabilis, Pseudomonas aeruginosa, Staphylococcus aureus, Bacillus subtilis, Bacillus cereus, Klebsiella pneumoniae, Serratia marcescens, and Mycobacterium avium.

Bacillus subtilis = test: Antimicrobial activity, paper disc method; assay type: cell-based; settings: paper disc 8 mm, 0.02 ml of a 300 μg/ml solution, trypticase-soy agar
Method: as §1

Escherichia coli = test: Antimicrobial activity, paper disc method; assay type: cell-based; settings: paper disc 8 mm, 0.02 ml of a 300 μg/ml solution, trypticase-soy agar
Method: as §1

Klebsiella pneumoniae = test: Antimicrobial activity, paper disc method; assay type: cell-based; settings: paper disc 8 mm, 0.02 ml of a 300 μg/ml solution, trypticase-soy agar
Method: as §1

Mycobacterium avium = test: Antimicrobial activity, paper disc method; assay type: cell-based; settings: paper disc 8 mm, 0.02 ml of a 300 μg/ml solution, trypticase-soy agar
Method: as §1

Proteus mirabilis = test: Antimicrobial activity, paper disc method; assay type: cell-based; settings: paper disc 8 mm, 0.02 ml of a 300 μg/ml solution, trypticase-soy agar
Method: as §1

Proteus vulgaris = test: Antimicrobial activity, paper disc method; assay type: cell-based; settings: paper disc 8 mm, 0.02 ml of a 300 μg/ml solution, trypticase-soy agar
Method: as §1

Pseudomonas aeruginosa = test: Antimicrobial activity, paper disc method; assay type: cell-based; settings: paper disc 8 mm, 0.02 ml of a 300 μg/ml solution, trypticase-soy agar
Method: as §1

Serratia marcescens = test: Antimicrobial activity, paper disc method; assay type: cell-based; settings: paper disc 8 mm, 0.02 ml of a 300 μg/ml solution, trypticase-soy agar
Method: as §1

Staphylococcus aureus = test: Antimicrobial activity, paper disc method; assay type: cell-based; settings: paper disc 8 mm, 0.02 ml of a 300 μg/ml solution, trypticase-soy agar
Method: as §1

Talaromyces avellaneus = test: Growth inhibition of a fungus on an agar plate; assay type: cell-based; settings: Hamigera avellanea, pH 7.0, read-out: minimal inhibitory concentration
Method: On the other hand, the growth of a fungus, Talaromyces avellaneus is inhibited by P-3 on an agar plate consisting of 3.5 g disodium hydrogen phosphate, 0.5 g monopotassium dihydrogen phosphate, 5 g yeast extract (Difco), 10 g glucose, 15 g agar, 1000 ml distilled water, pH 7.0. The minimal inhibitory concentration was 3 μg/ml for P-3.

Fusicladium levieri = test: Activity against microorganisms; assay type: cell-based
[1] = test system: Helminthosporium sigmoidium var irregulare; test: Activity against microorganisms; assay type: cell-based
Pyricularia oryzae = assay type: cell-based
Cochlioborus miyabeanus = test: Activity against microorganisms; assay type: cell-based
Sclerotinia screrotiorum = test: Activity against microorganisms; assay type: cell-based
Pellicularia sasakii = test: Activity against microorganisms; assay type: cell-based
Trichophyton rubrum = test: Activity against microorganisms; assay type: cell-based
Rhodotorula rubra = test: Activity against microorganisms; assay type: cell-based
Cryptococcus neoformans = test: Activity against microorganisms; assay type: cell-based
P388 leukemia = test: Antitumour activity upon P388 leukemia in mice; assay type: in vivo, mouse; settings: 0.00625 mg/kg/day, intraperitoneal, 9 consecutive days; 1×10^6 cells/animal i.p. transplanted
Description: The therapeutic effects of P-3 (dosed intraperito-nearly for 9 consecutive days) upon P388 leukemia in mice (1×10^6 cells/animal, mouse, intra-peritoneally transplanted) was investigated.

[2] = Preliminary acute toxicity test with mice; settings: mouse, in vivo, ip, intraperitoneal injection
Solubility = assay type: physicochemical

COc1cc2cc(c1Cl)N(C)C(=O)CC(OC(=O)C(C)C)C1(C)OC1C(C)C1CC(O)(NC(=O)O1)C(OC)C=CC=C(C)C2 (centres unmarked) [P-3]
activity against bacteria (Bacillus cereus) (Bacillus cereus): no activity
activity against bacteria (Bacillus subtilis) (Bacillus subtilis): no activity
activity against bacteria (Escherichia coli) (Escherichia coli): no activity
activity against bacteria (Klebsiella pneumoniae) (Klebsiella pneumoniae): no activity
activity against bacteria (Mycobacterium avium) (Mycobacterium avium): no activity
activity against bacteria (Proteus mirabilis) (Proteus mirabilis): no activity
activity against bacteria (Proteus vulgaris) (Proteus vulgaris): no activity
activity against bacteria (Pseudomonas aeruginosa) (Pseudomonas aeruginosa): no activity
activity against bacteria (Serratia marcescens) (Serratia marcescens): no activity
activity against bacteria (Staphylococcus aureus) (Staphylococcus aureus): no activity
MIC (Talaromyces avellaneus): 3 µg/mL (≈ 4.72 µM)
activity against Fusicladium levieri (Fusicladium levieri): had the activity
activity against Helminthosporium sigmoidium var irregulare [1]: had the activity
activity against Pyricularia oryzae (Pyricularia oryzae): had the activity
activity against Cochlioborus miyabeanus (Cochlioborus miyabeanus): had the activity
activity against Sclerotinia screrotiorum (Sclerotinia screrotiorum): had the activity
activity against Pellicularia sasakii (Pellicularia sasakii): had the activity
activity against Trichophyton rubrum (Trichophyton rubrum): had the activity
activity against Rhodotorula rubra (Rhodotorula rubra): had the activity
activity against Cryptococcus neoformans (Cryptococcus neoformans): had the activity
life-span-extending ratio (P388 leukemia): 168%
LD50 [2]: > 0.313 mg/kg
Solubility (Solubility; acetone): Soluble
Solubility (Solubility; benzene): Sparingly soluble
Solubility (Solubility; chloroform): Soluble
Solubility (Solubility; dimethylsulfoxide): Soluble
Solubility (Solubility; ethanol): Soluble
Solubility (Solubility; ether): Sparingly soluble
Solubility (Solubility; ethyl acetate): Soluble
Solubility (Solubility; hexane): Insoluble
Solubility (Solubility; methanol): Soluble
Solubility (Solubility; petr.ether): Insoluble
Solubility (Solubility; pyridine): Soluble
Solubility (Solubility; tetrahydrofuran): Soluble
Solubility (Solubility; water): Insoluble
